Measured values as given in patent US20160318844A1, “PROSTACYCLIN COMPOUNDS, COMPOSITIONS AND METHODS OF USE THEREOF” (Insmed Incorporated, priority 2015, published 2016).
Entries after “also recorded” stand apart in the source; their conditions may differ. Read-outs that look alike come from different tables or passages of the source. Blank lines part the entries; values can stand above or below the molecule they belong to.

Tests used:
[1] = system: esterase; test: Esterase mediated conversion of treprostinil compounds to treprostinil; assay type: in vitro ADME; details: esterase at 37° C., up to 1 hr
Experimental: A set of studies was conducted to determine the conversion kinetics to treprostinil of linear treprostinil compounds versus various branched treprostinil compounds. 0.4 mM of linear C8-TR or branched treprostinil compounds 2-dimethyl-1-propanyl-TR, 3,3-dimethyl-1-butanyl-TR, 2-ethyl-1-butanyl-TR, 5-nonanyl-TR, or 3-pentanyl-TR (see below for structures) were incubated with 0.2 U esterase at 37° C. for 1 hour, and the conversion (% of total) was calculated at 0.25, 0.5, 0.75, or 1 hour incubation time. • C8-TR (i.e., the compound of Formula (A) wherein R2=
The conversion is relative to the C8-TR compound and conversion was measured at 1 hr. post esterase incubation. • C8-TR (i.e., the compound of Formula (A) wherein R2=
Conversion was measured at 1 hr. post esterase incubation. • 4C7-TR (i.e., the compound of Formula (A) wherein R2=

[2] = system: CHO-K1 cells; test: CHO-K1 cell proliferation assay (Presto Blue); details: Table 9, unformulated alkyl esters, (0.195 μM-25 μM), 48 hour incubation
Experimental: CHO-K1 cells were harvested when the cell monolayer was 50-90% confluent (use passage 4-11). Media was aspirated out of the flask, and cells were rinsed with 2 mL of F12 media. Next, 1 mL of pre-warmed (37° C.) 0.25% trypsin-EDTA (Life Technologies, Cat#: 25300054) was added, and cells were dislodged from the flask by tapping it on the side. Complete growth media (F12 (Life Technologies, Cat #: 31765092)+10% FBS (Hyclone, Cat #: SH30071.03)+1× Pen-Strep (Life Technologies, cat #15140-122) was then added at a volume of 10 mL. Cells were centrifuged at 250×g for 5 minutes at room temperature, and the media was aspirated. The cell pellet was resuspended in 10 mL complete growth media. Cell number was determined using a hemacytometer. Cells were then seeded at 2000 cells per well of a 96-well plate in 100 μL of complete growth media. The plate was incubated overnight at 37° C. and 5% CO2 in a water-jacketed incubator.
The next day, 80 μL of fresh complete media was added to each well, and CHO-K1 cells were challenged with treprostinil compound and composition treatments. The working solutions were prepared at 10× concentration, and following 2 fold serial dilutions, 20 μL aliquots were added per well to arrive at a final 1× concentration. Following a 48 hour incubation at 37° C. and 5% CO2 in a water-jacketed incubator, the inhibitory effect on cell proliferation was determined. Plates were analyzed using 20 μL of Presto Blue reagent (Life Technologies, cat #: A13262) per well. The reagent was mixed, and plates were incubated for 1 hour at 37° C. and 5% CO2 in a waterjacketed incubator. Plates were read using either a CytoFluor Series 4000 (PerSeptive BioSystems) or Synergy Neo microplate reader (BioTek) with emission λ: 590 nm and excitation λ: 560 nm. […]
CHO-K1 cells were challenged with treprostinil alkyl esters, i.e., TR compounds of Formula (A), having the following R2 groups: […]
C2, C3, C4, C5, C6, C8, C10 or C12 straight chain alkyl, at dosages ranging from 0.098 μM to 25 μM. Following a 48 hour incubation period, the inhibitory effect on cell proliferation was determined.
Following a 72 hour incubation period, the inhibitory effect on cell proliferation was determined. Following a 48 hour incubation period, the inhibitory effect on cell proliferation was determined. […]

[3] = system: NR8383 cells; test: NR8383 cell proliferation assay; assay type: cell-based, rat; details: Table 9, unformulated alkyl esters, (0.195 μM-25 μM), 72 hour incubation
Experimental: Rat alveolar NR8383 cells were harvested when the monolayer was 50-90% confluent (use passage 5-11). Because the NR8383 cells include both adherent and non-adherent cells, media was transferred to a 50 mL Falcon tube. To obtain the cells remaining in the flask, 2 mL of plain media was added, and the remaining cells were scraped out of the 75 cm^2 flask with a cell scraper and added to the 50 mL tube. […] SH30071.03)+1×Pen-Strep (Life Technologies, cat #: 15410-122)). Cell number was determined using a hemacytometer. […] Measurements and calculations were made as described above for the CHO-K1 cells. Rat alveolar NR8383 cells were challenged with the same treprostinil derivative compositions: […]

[4] = target: T1, EP2 prostanoid receptor (Homo sapiens, UniProt P43116); test: GloSensor cAMP assay in CHO-K1 cells co-transfected with the EP2 receptor; assay type: cell-based
T1 construct: host or cells: CHO-K1
T1 sequence (P43116 whole entry): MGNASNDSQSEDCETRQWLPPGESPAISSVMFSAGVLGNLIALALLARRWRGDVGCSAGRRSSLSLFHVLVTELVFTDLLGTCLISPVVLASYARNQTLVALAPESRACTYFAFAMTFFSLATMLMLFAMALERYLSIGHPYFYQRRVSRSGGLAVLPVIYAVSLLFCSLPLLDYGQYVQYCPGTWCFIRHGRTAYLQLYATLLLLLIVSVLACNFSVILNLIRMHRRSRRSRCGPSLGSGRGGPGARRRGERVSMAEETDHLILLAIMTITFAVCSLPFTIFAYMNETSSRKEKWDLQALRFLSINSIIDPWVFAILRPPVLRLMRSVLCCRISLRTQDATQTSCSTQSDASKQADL
Source text: cAMP is a second messenger involved in signal transduction of G-protein coupled receptors (GPCRs) acting through Gα-s and Gα-i proteins. Because the treprostinil receptor is a GPCR, the assay provides an indication of whether the respective prostacyclin compound (or metabolite thereof) binds its receptor and activates the GPCR cell signaling cascade. The GloSensorTM assay harnesses a genetically modified form of firefly luciferase into which a cAMP-binding protein moiety has been inserted. Upon binding of cAMP, a conformational change is induced leading to increased light output. The EP2 prostanoid receptor was cotransfected with the GioSensorm plasmid (Promega) into CHO-K cells as follows. CHO-K cells were harvested when the monoloayer was at 50-90% confluence. First, cells were washed with 5 mL PBS. […] The media was aspirated, and the cell pellet was resuspended in 10 mL of growth media. Cell number was determined using a hemacytometer. […] For small scale transfections of up to 20 wells, the pGLoSensor-22F cAMP plasmid (Promega, Cat #: E2301) (2 apg): […] Cat #: […] P2271) ratio was diluted to a final concentration of 12.6 ng/μL (total plasmid) in Opti-MEM I reduced-serum medium (Life Technologies, Cat #: 1985062). Next, 6 μL of FuGENE HD transfection reagent (Promega, Cat #: E2311) was added to 160 μL of diluted plasmid and mixed carefully by gentle pipetting. The complex was incubated at room temperature for 0 to 10 minutes, and then 8 μL of the complex was added per well of a 96 well white assay plate (Costar, Cat #: 3917) and gently mixed without disturbing the cell monolayer. […] Following incubation, cells were treated and analyzed. For larger scale transfections, the aforementioned steps were scaled up accordingly, and cells were frozen following the last incubation. In order to prepare frozen transfected CHO-K cells, the media was aspirated from culture flasks and cells were rinsed with 5 mL PBS. […] Cell number was determined using a hemacytometer. The media was aspirated, and the cell pellet was resuspended in freezing media (Millipore, cat #: S-002-SF) at 2.5×10^4 cells/vial. Transfected cells were incubated overnight at -80° C. before transfer to liquid nitrogen for long term storage. […] SH30071.03)). […] In preparation for cAMP measurement, the cells were equilibrated with the GloSensor cAMP reagent prior to treatment. For equilibration, the medium was carefully removed from the individual well. Next, 100 μL of equilibration medium ([…] of Glosensor Reagent stock solution (Promega, Cat #: E291), 10% FBS (Hydone, Cat #: SH30071.03) and 88% CO2 independent medium (Life Technologies, Cat #: 18045088)) was added per well of the 96-well plate, and added to the side of each well. The plate was then incubated for 2 hours at room temperature. A first pre-read measurement was taken using a microplate reader (MicroLumat Plus). Plates were incubated for an additional 10 minutes at room temperature, followed by a second pre-read measurement. […] Following treatment, each plate was read every 5 minutes for the duration of the assay using a microplate reader (MicroLumat Plus). In order to determine the fold change in cAMP relative to the control, the transfection efficiency was first determined by dividing the second pre-read measurement by the average of the corresponding pre-read measurements. Next, the normalized relative light units (RLUs) of the samples were determined by dividing the plate read measurement by the transfection efficiency. The fold change in cAMP relative to the control was then determined by dividing the normalized RLU of the samples by the normalized RLU of the control. The cAMP assay was validated using free treprostinil. […] Luminescence was then measured at room temperature. […] Nebulizer Aeroneb Pro (Aerogen) was used to nebulize treprostinil derivative compositions. Desired volume of the formulation (usually 3 mL) was loaded to the mesh head of the nebulizer. […]

[5] = physchem; details: organic solvent or mixture, thermodynamic from solid
Experimental: Selected treprostinil derivatives were evaluated for the use in a metered dose inhaler (MDI).
5 mg of each treprostinil compound was added in a glass bottle. Specific amount of ethanol was added by weight. An MDI valve was crimped to each bottle, and HFA propellant added through the valve to the total volume of 5 mL. Compounds were allowed to dissolve for 24 hours at room temperature. The formulations were assessed visually for solubility. The goal was to estimate the minimum ethanol concentration required to solubilize each compound in propellant.
Soluble samples presented as clear and colorless solutions. […] Non-soluble samples had white precipitate or crystals formed. Ethanol was added as a solubility aid.

Compound: CCCCC[C@H](O)CC[C@@H]1[C@H]2Cc3cccc(OCC(=O)OC(CCC)CCCC)c3C[C@H]2C[C@H]1O (stereo partly shown) [Compound 4C8-TR]
conversion rate compared with other compound [1]: slower conversion rate than the linear compound C-TR; also recorded: slower conversion rate than the symmetrical compounds (4C7-TR and 5C9-TR)

Compound: CCCCC[C@H](O)CC[C@@H]1[C@H]2Cc3cccc(OCC(=O)OCCCC)c3C[C@H]2C[C@H]1O [Compound C4-TR]
Effect on cell proliferation, CHO-K1 Cells: detectable cell inhibition [2]: No detectable cell inhibition
Effect on cell proliferation, NR8383 Cells: detectable cell inhibition [3]: No detectable cell inhibition

Compound: CCCCCCOC(=O)COc1cccc2c1C[C@H]1C[C@@H](O)[C@H](CC[C@@H](O)CCCCC)[C@H]1C2 [Compound C6-TR]
Effect on cell proliferation, CHO-K1 Cells: detectable cell inhibition [2]: No detectable cell inhibition
Effect on cell proliferation, NR8383 Cells: detectable cell inhibition [3]: No detectable cell inhibition

Compound: CCCCCC[C@H](C)OC(=O)COc1cccc2c1C[C@H]1C[C@@H](O)[C@H](CC[C@@H](O)CCCCC)[C@H]1C2 [(S)-2C8-TR]
conversion rate compared with other compound [1]: no significant difference

Compound: CCCCC[C@H](O)CC[C@@H]1[C@H]2Cc3cccc(OCC(=O)OCCC)c3C[C@H]2C[C@H]1O [Compound C3-TR]
Effect on cell proliferation, CHO-K1 Cells: detectable cell inhibition [2]: No detectable cell inhibition
Effect on cell proliferation, NR8383 Cells: detectable cell inhibition [3]: No detectable cell inhibition

EC50 ([4]; 4.5 hr incubation time, read-out: EC50 (μM) 4.5 hr): 1.84 µM
EC50 ([4]; 6.0 hr incubation time, read-out: EC50 (μM) 6.0 hr): 1.68 µM
EC50 ([4]; 8.0 hr incubation time, read-out: EC50 (μM) 8.0 hr): 1.65 µM
EC50 ([4]; EC50 (μM) 0.5 hr, 0.5 hr incubation time): 2.43 µM
EC50 ([4]; EC50 (μM) 1.0 hr, 1.0 hr incubation time): 2.27 µM
EC50 ([4]; EC50 (μM) 2.0 hr, 2.0 hr incubation time): 1.75 µM
EC50 ([4]; EC50 (μM) 3.0 hr, 3.0 hr incubation time): 1.81 µM
EC50 ([4]; EC50 (μM) 4.0 hr, 4.0 hr incubation time): 1.88 µM
EC50 ([4]; EC50 (μM) 5.0 hr, 5.0 hr incubation time): 1.91 µM
EC50 ([4]; EC50 (μM) 7.0 hr, 7.0 hr incubation time): 1.71 µM
Compound: CCCCC[C@H](O)CC[C@@H]1[C@H]2Cc3cccc(OCC(=O)OCC)c3C[C@H]2C[C@H]1O [Compound C2-TR, treprostinil ethyl ester]
Effect on cell proliferation, CHO-K1 Cells: detectable cell inhibition [2]: No detectable cell inhibition
Effect on cell proliferation, NR8383 Cells: detectable cell inhibition [3]: No detectable cell inhibition

Compound: CCCCC[C@H](O)CC[C@@H]1[C@H]2Cc3cccc(OCC(=O)OC(CCC)CCC)c3C[C@H]2C[C@H]1O [Compound 4C7-TR]
conversion rate compared with other compound [1]: slower conversion rate than the linear compound C-TR

change of potency with incubation time ([4]; cAMP dose response curves, 0.5 hr to 8 hr): increases with incubation time
ranking of activity ([4]; kinetic profile at 10 μM and 5 μM): C12-TR>C14-TR>5-nonanyl-TR>C16-TR
conversion rate compared with other compound ([1]; listed as 5-nonanyl-TR): slower conversion rate than linear C8-TR
solubility at 24 h ([5]; Solubility in HFA-134a with added ethanol): < 1000 µg/mL
solubility at 24 h ([5]; Solubility in HFA-227 with added ethanol): > 1000 µg/mL
Compound: CCCCC[C@H](O)CC[C@@H]1[C@H]2Cc3cccc(OCC(=O)OC(CCCC)CCCC)c3C[C@H]2C[C@H]1O [Compound 5C9-TR, 5-nonanyl-treprostinil]
conversion rate compared with other compound [1]: slower conversion rate than the linear compound C-TR

Compound: CCCCCC[C@@H](C)OC(=O)COc1cccc2c1C[C@H]1C[C@@H](O)[C@H](CC[C@@H](O)CCCCC)[C@H]1C2 [(R)-2C8-TR]
conversion rate compared with other compound [1]: no significant difference
